Test results as given in paper PMC5119973 (Cancer Medicine, 2016).
Several values for one entry are separate records, joined by “and”; a condition that tells them apart may be missing. Equal entries are not always repeated.

The compounds below were run against T1, TNIK (Homo sapiens, UniProt Q9UKE5) (assay: KINOMEscan active-site competitive binding assay). Conditions: slash = two separate measurements.
T1 construct: purchased DiscoveRx
T1 sequence (Q9UKE5 whole entry): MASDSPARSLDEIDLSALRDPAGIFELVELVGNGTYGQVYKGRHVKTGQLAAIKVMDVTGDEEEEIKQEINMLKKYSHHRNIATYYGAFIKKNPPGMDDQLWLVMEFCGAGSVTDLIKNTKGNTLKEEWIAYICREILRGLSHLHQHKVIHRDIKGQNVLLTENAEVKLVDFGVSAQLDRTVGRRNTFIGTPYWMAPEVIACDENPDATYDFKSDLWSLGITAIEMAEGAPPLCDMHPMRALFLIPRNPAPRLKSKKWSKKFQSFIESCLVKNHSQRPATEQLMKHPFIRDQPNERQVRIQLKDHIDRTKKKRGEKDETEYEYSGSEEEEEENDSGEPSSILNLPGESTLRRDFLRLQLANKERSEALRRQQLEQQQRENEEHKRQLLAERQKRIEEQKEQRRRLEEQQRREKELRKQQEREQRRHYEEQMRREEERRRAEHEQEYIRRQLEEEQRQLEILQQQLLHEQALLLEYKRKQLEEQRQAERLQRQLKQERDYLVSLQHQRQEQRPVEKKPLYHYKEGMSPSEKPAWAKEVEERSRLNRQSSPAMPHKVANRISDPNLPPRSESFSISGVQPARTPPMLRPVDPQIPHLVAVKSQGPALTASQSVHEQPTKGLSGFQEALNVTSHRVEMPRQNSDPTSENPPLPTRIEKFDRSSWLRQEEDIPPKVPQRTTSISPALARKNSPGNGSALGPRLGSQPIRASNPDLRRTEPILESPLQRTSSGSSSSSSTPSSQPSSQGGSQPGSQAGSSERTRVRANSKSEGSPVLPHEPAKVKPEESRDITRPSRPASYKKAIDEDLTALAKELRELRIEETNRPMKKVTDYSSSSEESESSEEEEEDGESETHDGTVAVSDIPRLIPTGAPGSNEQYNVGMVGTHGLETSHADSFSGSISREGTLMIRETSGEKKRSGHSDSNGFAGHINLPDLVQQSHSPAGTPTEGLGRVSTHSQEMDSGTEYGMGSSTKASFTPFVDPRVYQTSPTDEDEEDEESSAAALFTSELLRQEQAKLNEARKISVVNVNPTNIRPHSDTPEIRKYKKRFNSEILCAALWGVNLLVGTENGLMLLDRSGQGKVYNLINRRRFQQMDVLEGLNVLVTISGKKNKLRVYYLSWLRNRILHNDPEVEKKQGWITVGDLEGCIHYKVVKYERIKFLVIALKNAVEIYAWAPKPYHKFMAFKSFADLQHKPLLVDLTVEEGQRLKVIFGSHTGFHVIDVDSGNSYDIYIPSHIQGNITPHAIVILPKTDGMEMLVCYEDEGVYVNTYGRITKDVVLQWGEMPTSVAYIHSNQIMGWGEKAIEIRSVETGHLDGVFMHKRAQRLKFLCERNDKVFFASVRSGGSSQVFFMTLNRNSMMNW
`CNC(=O)c1cc(Oc2ccc(NC(=O)Nc3ccc(Cl)c(C(F)(F)F)c3)c(F)c2)cc[n+]1[O-]` [M‐2] gave a Kd of 41 nM. For `NC(=O)c1cc(Oc2ccc(NC(=O)Nc3ccc(Cl)c(C(F)(F)F)c3)c(F)c2)cc[n+]1[O-]` [M‐5], the Kd was 120 nM. With `CNC(=O)c1cc(Oc2ccc(NC(=O)Nc3ccc(Cl)c(C(F)(F)F)c3)c(F)c2)ccn1` [Regorafenib, reference compound] the Kd was 1100 nM and 970 nM.

The compounds below were run against T2, TIE-1 (Homo sapiens, UniProt P35590) (assay: KINOMEscan active-site competitive binding assay). Conditions: slash = two separate measurements.
T2 construct: purchased DiscoveRx
T2 sequence (P35590 22-1138): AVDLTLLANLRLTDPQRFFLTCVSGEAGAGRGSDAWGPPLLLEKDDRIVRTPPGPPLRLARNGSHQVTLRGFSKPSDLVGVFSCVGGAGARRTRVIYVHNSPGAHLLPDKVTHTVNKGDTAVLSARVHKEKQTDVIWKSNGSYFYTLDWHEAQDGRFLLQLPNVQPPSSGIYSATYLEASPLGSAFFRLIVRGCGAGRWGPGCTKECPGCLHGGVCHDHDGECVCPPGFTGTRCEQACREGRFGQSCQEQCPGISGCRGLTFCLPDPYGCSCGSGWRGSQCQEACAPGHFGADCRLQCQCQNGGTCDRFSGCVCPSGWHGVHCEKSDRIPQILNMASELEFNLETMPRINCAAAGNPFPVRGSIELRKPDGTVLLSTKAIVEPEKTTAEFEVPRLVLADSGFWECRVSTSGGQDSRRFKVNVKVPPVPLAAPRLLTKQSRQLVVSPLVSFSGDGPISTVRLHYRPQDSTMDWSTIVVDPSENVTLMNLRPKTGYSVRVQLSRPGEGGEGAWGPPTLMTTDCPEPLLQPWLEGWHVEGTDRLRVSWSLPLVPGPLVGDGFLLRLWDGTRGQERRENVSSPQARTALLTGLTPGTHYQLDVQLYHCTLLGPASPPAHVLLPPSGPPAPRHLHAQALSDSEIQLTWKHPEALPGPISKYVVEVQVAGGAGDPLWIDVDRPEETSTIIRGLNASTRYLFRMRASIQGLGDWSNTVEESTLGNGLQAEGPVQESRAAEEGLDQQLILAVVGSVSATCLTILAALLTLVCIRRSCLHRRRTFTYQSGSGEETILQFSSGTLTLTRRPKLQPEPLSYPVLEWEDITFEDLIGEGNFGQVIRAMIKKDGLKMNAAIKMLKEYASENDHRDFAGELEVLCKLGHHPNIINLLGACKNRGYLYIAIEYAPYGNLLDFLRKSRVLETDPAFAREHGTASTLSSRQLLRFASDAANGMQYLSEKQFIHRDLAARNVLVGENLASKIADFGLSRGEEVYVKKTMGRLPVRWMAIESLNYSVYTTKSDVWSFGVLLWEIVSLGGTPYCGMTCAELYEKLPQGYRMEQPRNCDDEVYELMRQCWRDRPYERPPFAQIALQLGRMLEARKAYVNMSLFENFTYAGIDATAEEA
Compound `CNC(=O)c1cc(Oc2ccc(NC(=O)Nc3ccc(Cl)c(C(F)(F)F)c3)c(F)c2)cc[n+]1[O-]` [M‐2] has a Kd of 48 nM. `NC(=O)c1cc(Oc2ccc(NC(=O)Nc3ccc(Cl)c(C(F)(F)F)c3)c(F)c2)cc[n+]1[O-]` [M‐5] showed a Kd of 73 nM. In the case of `CNC(=O)c1cc(Oc2ccc(NC(=O)Nc3ccc(Cl)c(C(F)(F)F)c3)c(F)c2)ccn1` [Regorafenib, reference compound], the Kd is reported as 30 nM and 27 nM.

What follows are compounds tested against T3, EPHA6 (Homo sapiens, UniProt Q9UF33) (assay: KINOMEscan active-site competitive binding assay). Conditions: slash = two separate measurements.
T3 construct: purchased DiscoveRx (KINOMEscan service)
T3 sequence (Q9UF33 23-1036): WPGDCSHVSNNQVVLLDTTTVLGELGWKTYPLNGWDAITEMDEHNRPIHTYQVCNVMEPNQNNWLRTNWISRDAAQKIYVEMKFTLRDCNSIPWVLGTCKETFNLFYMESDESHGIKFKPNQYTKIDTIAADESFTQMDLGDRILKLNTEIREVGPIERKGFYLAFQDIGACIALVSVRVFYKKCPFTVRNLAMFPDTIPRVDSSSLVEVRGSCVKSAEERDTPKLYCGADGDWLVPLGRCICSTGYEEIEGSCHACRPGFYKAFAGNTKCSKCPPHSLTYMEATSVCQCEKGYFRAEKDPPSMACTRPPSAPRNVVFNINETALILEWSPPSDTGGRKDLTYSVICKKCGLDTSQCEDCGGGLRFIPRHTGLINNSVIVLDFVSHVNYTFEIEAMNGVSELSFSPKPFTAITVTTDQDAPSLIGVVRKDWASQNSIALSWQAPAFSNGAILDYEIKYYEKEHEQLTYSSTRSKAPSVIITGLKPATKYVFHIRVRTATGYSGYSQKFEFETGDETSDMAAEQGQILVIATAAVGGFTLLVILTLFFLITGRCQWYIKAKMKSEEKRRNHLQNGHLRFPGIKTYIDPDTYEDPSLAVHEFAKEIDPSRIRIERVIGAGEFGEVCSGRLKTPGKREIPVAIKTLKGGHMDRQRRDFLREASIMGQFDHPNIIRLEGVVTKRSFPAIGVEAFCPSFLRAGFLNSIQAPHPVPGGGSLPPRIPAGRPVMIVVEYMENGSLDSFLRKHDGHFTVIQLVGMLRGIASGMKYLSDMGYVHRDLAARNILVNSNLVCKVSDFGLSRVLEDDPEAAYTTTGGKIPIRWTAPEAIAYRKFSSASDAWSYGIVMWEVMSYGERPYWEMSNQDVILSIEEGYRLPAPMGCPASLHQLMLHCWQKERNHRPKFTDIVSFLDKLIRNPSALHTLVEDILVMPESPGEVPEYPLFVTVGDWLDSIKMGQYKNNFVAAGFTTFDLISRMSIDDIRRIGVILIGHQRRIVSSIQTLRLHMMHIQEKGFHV
Work on `CNC(=O)c1cc(Oc2ccc(NC(=O)Nc3ccc(Cl)c(C(F)(F)F)c3)c(F)c2)cc[n+]1[O-]` [M‐2] yielded a Kd of 210 nM. In the case of `NC(=O)c1cc(Oc2ccc(NC(=O)Nc3ccc(Cl)c(C(F)(F)F)c3)c(F)c2)cc[n+]1[O-]` [M‐5], the Kd is reported as 640 nM. For `CNC(=O)c1cc(Oc2ccc(NC(=O)Nc3ccc(Cl)c(C(F)(F)F)c3)c(F)c2)ccn1` [Regorafenib, reference compound], the Kd was 48 nM and 23 nM.

What follows are compounds tested against T4, SLK (Homo sapiens, UniProt Q9H2G2) (assay: KINOMEscan active-site competitive binding assay). Conditions: slash = two separate measurements.
T4 construct: purchased DiscoveRx
T4 sequence (Q9H2G2 whole entry): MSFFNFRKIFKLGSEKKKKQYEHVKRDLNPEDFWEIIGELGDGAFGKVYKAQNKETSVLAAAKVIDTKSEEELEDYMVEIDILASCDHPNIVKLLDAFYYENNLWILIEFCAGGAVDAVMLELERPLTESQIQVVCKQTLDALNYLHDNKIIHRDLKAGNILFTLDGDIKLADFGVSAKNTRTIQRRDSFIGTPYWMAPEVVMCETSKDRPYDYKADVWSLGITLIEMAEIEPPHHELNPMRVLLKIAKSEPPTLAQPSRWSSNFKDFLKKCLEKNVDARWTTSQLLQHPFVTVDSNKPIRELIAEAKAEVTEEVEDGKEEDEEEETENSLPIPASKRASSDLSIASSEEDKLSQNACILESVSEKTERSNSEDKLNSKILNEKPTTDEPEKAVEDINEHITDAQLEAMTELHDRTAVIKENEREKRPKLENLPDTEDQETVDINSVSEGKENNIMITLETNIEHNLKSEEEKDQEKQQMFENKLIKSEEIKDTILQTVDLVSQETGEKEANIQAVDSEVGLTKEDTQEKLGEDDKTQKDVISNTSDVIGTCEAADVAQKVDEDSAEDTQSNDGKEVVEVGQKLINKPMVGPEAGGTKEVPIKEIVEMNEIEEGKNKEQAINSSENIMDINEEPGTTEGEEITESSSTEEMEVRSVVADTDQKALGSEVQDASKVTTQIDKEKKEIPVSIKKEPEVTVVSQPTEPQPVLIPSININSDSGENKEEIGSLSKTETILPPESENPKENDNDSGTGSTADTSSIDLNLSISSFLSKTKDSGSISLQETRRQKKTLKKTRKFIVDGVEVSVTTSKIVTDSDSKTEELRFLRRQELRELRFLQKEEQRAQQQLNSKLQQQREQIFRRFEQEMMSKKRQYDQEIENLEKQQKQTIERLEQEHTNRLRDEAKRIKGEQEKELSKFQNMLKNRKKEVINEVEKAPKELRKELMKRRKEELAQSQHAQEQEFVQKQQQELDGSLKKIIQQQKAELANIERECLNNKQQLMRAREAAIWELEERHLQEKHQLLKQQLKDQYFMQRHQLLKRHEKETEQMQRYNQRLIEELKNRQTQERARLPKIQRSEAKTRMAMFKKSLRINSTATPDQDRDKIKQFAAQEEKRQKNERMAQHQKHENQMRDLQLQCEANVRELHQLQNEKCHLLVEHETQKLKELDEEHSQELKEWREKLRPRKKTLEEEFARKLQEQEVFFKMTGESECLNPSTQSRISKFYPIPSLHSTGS
`CNC(=O)c1cc(Oc2ccc(NC(=O)Nc3ccc(Cl)c(C(F)(F)F)c3)c(F)c2)cc[n+]1[O-]` [M‐2] was tested, and the Kd was 64 nM. `NC(=O)c1cc(Oc2ccc(NC(=O)Nc3ccc(Cl)c(C(F)(F)F)c3)c(F)c2)cc[n+]1[O-]` [M‐5] showed a Kd of 100 nM. `CNC(=O)c1cc(Oc2ccc(NC(=O)Nc3ccc(Cl)c(C(F)(F)F)c3)c(F)c2)ccn1` [Regorafenib, reference compound] was tested, and the Kd was 120 nM and 98 nM.

These compounds were tested on MDA‐MB‐231 (assay: MDA‐MB‐231 breast cancer xenograft in NMRI nu/nu mice). Conditions: MDA-MB-231; 3 mg/kg/day oral for 27 days; end of study day 40.
Assay type: in vivo, mouse
Description: Mouse experiments were approved by the relevant regulatory agency of the federal state of Berlin (Landesamt für Gesundheit und Soziales Berlin, approval number G0221/03). Mice were maintained in individually ventilated cages in groups of four mice per cage. They received autoclaved food and bedding (Ssniff, Soest, Germany) and acidified (pH 4.0) tap water ad libitum. The animal facility was equipped with an automatic 12 h light/dark regulation, temperature regulation at 22 ± 2°C, and relative humidity of 50 ± 10%. Female NMRI nu/nu mice (purchased from Charles River, Sulzfeld, Germany) were inoculated with 1 × 10^7 MDA‐MB‐231 or HT‐29 cells, which were allowed to grow subcutaneously to a palpable size of approximately 60–100 mm^3. […] All administrations were performed in the morning, without anesthesia. Tumor volume was determined twice per week using caliper measurements, and the volume was calculated using the formula (D × d^2)/2, with d defined as the minor axis and D as the major axis of the measurement. Tumor growth inhibition was calculated as relative tumor volume in relation to the first treatment day.
Changes in tumor volume were statistically evaluated by two‐way repeated‐measures analysis of variance, followed by Bonferroni correction, using GraphPad Prism 5 (San Diego, CA), and P < 0.05 was regarded as significant. Additionally, body weight of all mice was determined twice weekly, and the health status of the animals, including behavioral changes, was recorded daily.
With `CNC(=O)c1cc(Oc2ccc(NC(=O)Nc3ccc(Cl)c(C(F)(F)F)c3)c(F)c2)cc[n+]1[O-]` [M‐2] the “Tumor growth inhibition (%)” value was 49%. `NC(=O)c1cc(Oc2ccc(NC(=O)Nc3ccc(Cl)c(C(F)(F)F)c3)c(F)c2)cc[n+]1[O-]` [M‐5] was tested, and the “Tumor growth inhibition (%)” value was 60%. With `CNC(=O)c1cc(Oc2ccc(NC(=O)Nc3ccc(Cl)c(C(F)(F)F)c3)c(F)c2)ccn1` [Regorafenib, reference compound] the “Tumor growth inhibition (%)” value was 44%.

Same assay, conditions: MDA-MB-231; 10 mg/kg/day oral for 27 days; end of study day 40
`CNC(=O)c1cc(Oc2ccc(NC(=O)Nc3ccc(Cl)c(C(F)(F)F)c3)c(F)c2)cc[n+]1[O-]` [M‐2] was tested, and the “Tumor growth inhibition (%)” value was 70%. For `NC(=O)c1cc(Oc2ccc(NC(=O)Nc3ccc(Cl)c(C(F)(F)F)c3)c(F)c2)cc[n+]1[O-]` [M‐5], the “Tumor growth inhibition (%)” value was 59%. For `CNC(=O)c1cc(Oc2ccc(NC(=O)Nc3ccc(Cl)c(C(F)(F)F)c3)c(F)c2)ccn1` [Regorafenib, reference compound], the “Tumor growth inhibition (%)” value was 72%.

Same assay, conditions: MDA‐MB‐231 model; P < 0.05 for all groups
For `CNC(=O)c1cc(Oc2ccc(NC(=O)Nc3ccc(Cl)c(C(F)(F)F)c3)c(F)c2)cc[n+]1[O-]` [M‐2], the “Tumor growth versus vehicle control” value was “significantly inhibited tumor growth”. `NC(=O)c1cc(Oc2ccc(NC(=O)Nc3ccc(Cl)c(C(F)(F)F)c3)c(F)c2)cc[n+]1[O-]` [M‐5] was tested, and the “Tumor growth versus vehicle control” value was “significantly inhibited tumor growth”. With `CNC(=O)c1cc(Oc2ccc(NC(=O)Nc3ccc(Cl)c(C(F)(F)F)c3)c(F)c2)ccn1` [Regorafenib, reference compound] the “Tumor growth versus vehicle control” value was “significantly inhibited tumor growth”.
